Experimental data taken from ChEMBL document CHEMBL1201862, “PubChem BioAssay data set” (2004).
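Method: 48-hour compound exposure of cells in 96-well plates, five concentrations, linear interpolation of endpoints. Here, GI50 denotes the concentration required for 50% inhibition of growth.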 Calls of active or inactive are those of the source. Cut-off read from the data, not from the text of the source: active = GI50 up to about 1.1 µM and inactive = higher.

Tests used:
Test in all cases: NCI anticancer screen, dose series, 48 h
SN12C = tested on: SN12C
ACHN = tested on: ACHN
K562 = tested on: K562
RPMI-8226 = tested on: RPMI-8226
UO-31 = tested on: UO-31
CAKI-1 = tested on: CAKI-1
M14 = tested on: M14
SNB-19 = tested on: SNB-19
HT-29 = tested on: HT-29
NCI-H522 = tested on: NCI-H522
SF-539 = tested on: SF-539
BT-549 = tested on: BT-549
SK-OV-3 = tested on: SK-OV-3
NCI-H23 = tested on: NCI-H23
Malme-3M = tested on: Malme-3M
HOP-62 = tested on: HOP-62
SF-295 = tested on: SF-295
SNB-75 = tested on: SNB-75
OVCAR-4 = tested on: OVCAR-4
IGROV-1 = tested on: IGROV-1

SMILES | GI50 (SN12C) | GI50 (ACHN) | GI50 (K562) | GI50 (RPMI-8226) | GI50 (UO-31) | GI50 (CAKI-1) | GI50 (M14) | GI50 (SNB-19) | GI50 (HT-29) | GI50 (NCI-H522) | GI50 (SF-539) | GI50 (BT-549) | GI50 (SK-OV-3) | GI50 (NCI-H23) | GI50 (Malme-3M) | GI50 (HOP-62) | GI50 (SF-295) | GI50 (SNB-75) | GI50 (OVCAR-4) | GI50 (IGROV-1)
Cc1cccc2c(O)c3c(O)cc(O)cc3nc12 | > 10 µM (inactive) | > 10 µM (inactive) | > 10 µM (inactive) | > 10 µM (inactive) | > 10 µM (inactive) | > 10 µM (inactive) | > 10 µM (inactive) | > 10 µM (inactive) | > 10 µM (inactive) | > 10 µM (inactive) | 6.12 µM (inactive) | 3.61 µM (inactive) | > 10 µM (inactive) | > 10 µM (inactive) | > 10 µM (inactive) | > 10 µM (inactive) | > 10 µM (inactive) | 7.24 µM (inactive) | > 10 µM (inactive) | > 10 µM (inactive)
CCOC(=O)C(C(=O)OCC)=C1NC2(c3ccccc3Nc3ccc(C)cc32)C(C(=O)OC)S1 (stereo not given) | 4.11 µM (inactive) | 21.4 µM (inactive) | 18.4 µM (inactive) | 8.93 µM (inactive) | 16.5 µM (inactive) | 8.69 µM (inactive) | 27.6 µM (inactive) | 55.3 µM (inactive) | 23.9 µM (inactive) | 13.6 µM (inactive) | 42.2 µM (inactive) | 43.6 µM (inactive) | > 100 µM (inactive) | 25.5 µM (inactive) | 22.5 µM (inactive) | 80 µM (inactive) | 10.8 µM (inactive) | 14.9 µM (inactive) | 21.9 µM (inactive) | 18.4 µM (inactive)
COC(=O)/C=C/C(=O)Nc1cc(Cl)c(Cl)cc1CC(=O)N(C)[C@H]1CCCC[C@@H]1N1CCCC1 | 10.2 µM (inactive) | 2.85 µM (inactive) | 3.72 µM (inactive) | 2.63 µM (inactive) | 4.52 µM (inactive) | 5.37 µM (inactive) | 7.41 µM (inactive) | 18.3 µM (inactive) | 7.8 µM (inactive) | 1.79 µM (inactive) | 5.04 µM (inactive) | 12.9 µM (inactive) | 18.1 µM (inactive) | 13.8 µM (inactive) | 6.41 µM (inactive) | 16.9 µM (inactive) | 18.3 µM (inactive) | 13.8 µM (inactive) | 8.63 µM (inactive) | 7.21 µM (inactive)
CN(C)CCNC(=O)c1cccc2c(NC(CCC(N)=O)C(=O)O)c3ccccc3nc12 (stereo not given) | 10.4 µM (inactive) | 3.37 µM (inactive) | 4.4 µM (inactive) | 9.57 µM (inactive) | 1.55 µM (inactive) | 11.3 µM (inactive) | 7.55 µM (inactive) | 3.49 µM (inactive) | 4.67 µM (inactive) | 5.75 µM (inactive) | 5.55 µM (inactive) | 10.5 µM (inactive) | 9.95 µM (inactive) | 3.45 µM (inactive) | 5.56 µM (inactive) | 6.4 µM (inactive) | 5.64 µM (inactive) | 13.4 µM (inactive) | 16.1 µM (inactive) | 5.25 µM (inactive)
Cc1ccc([N+](=O)[O-])cc1S(=O)(=O)Nc1ccc(C2=NOC(c3cccs3)C2)cc1 (stereo not given) | 17.9 µM (inactive) | 14.8 µM (inactive) | 3.58 µM (inactive) | 10.4 µM (inactive) | 6.25 µM (inactive) | 18.7 µM (inactive) | 5.98 µM (inactive) | 13.8 µM (inactive) | 12.5 µM (inactive) | 3.2 µM (inactive) | 13.5 µM (inactive) | 13.2 µM (inactive) | 14.2 µM (inactive) | 17.6 µM (inactive) | 13.9 µM (inactive) | 5.79 µM (inactive) | 3.9 µM (inactive) | 16.1 µM (inactive) | 9.42 µM (inactive) | 11.1 µM (inactive)
Cc1cc2ccc(OC(=O)c3ccc(NC(=N)N)cc3)cc2oc1=O | 23.6 µM (inactive) | > 100 µM (inactive) | 25.6 µM (inactive) | 22.2 µM (inactive) | 52.4 µM (inactive) | 43.5 µM (inactive) | 28.8 µM (inactive) | 22.2 µM (inactive) | 26.6 µM (inactive) | 18.3 µM (inactive) | 24.5 µM (inactive) | 26.3 µM (inactive) | 19.1 µM (inactive) | 21.3 µM (inactive) | 22 µM (inactive) | 18.7 µM (inactive) | 46.5 µM (inactive) | 23.3 µM (inactive) | 16.6 µM (inactive) | 55 µM (inactive)
O=C1CSC(/C(=C\c2ccc(Cl)cc2)c2nc3ccccc3[nH]2)=N1 | 17.8 µM (inactive) | 6.68 µM (inactive) | 34.4 µM (inactive) | 33.8 µM (inactive) | 3.03 µM (inactive) | 8.79 µM (inactive) | 22.6 µM (inactive) | 19.2 µM (inactive) | 21.7 µM (inactive) | 5.3 µM (inactive) | 0.659 µM (active) | 19.2 µM (inactive) | 11.5 µM (inactive) | 14.8 µM (inactive) | 16.7 µM (inactive) | 1.94 µM (inactive) | 9.2 µM (inactive) | 12.3 µM (inactive) | 16.1 µM (inactive) | 10.1 µM (inactive)
COC(OC)C1OC(CO)C(n2cc(C)c(=O)[nH]c2=O)C1O (stereo not given) | > 100 µM (inactive) | > 100 µM (inactive) | > 100 µM (inactive) | > 100 µM (inactive) | > 100 µM (inactive) | > 100 µM (inactive) | > 100 µM (inactive) | > 100 µM (inactive) | > 100 µM (inactive) | > 100 µM (inactive) | > 100 µM (inactive) | > 100 µM (inactive) | > 100 µM (inactive) | > 100 µM (inactive) | > 100 µM (inactive) | > 100 µM (inactive) | > 100 µM (inactive) | > 100 µM (inactive) | > 100 µM (inactive) | > 100 µM (inactive)
C(=N\Nc1nnc2c(n1)[nH]c1ccccc12)/c1cccnc1 | > 100 µM (inactive) | > 100 µM (inactive) | > 100 µM (inactive) | > 100 µM (inactive) | > 100 µM (inactive) | > 100 µM (inactive) | 5.07 µM (inactive) | > 100 µM (inactive) | > 100 µM (inactive) | > 100 µM (inactive) | > 100 µM (inactive) | > 100 µM (inactive) | > 100 µM (inactive) | > 100 µM (inactive) | 57.8 µM (inactive) | > 100 µM (inactive) | > 100 µM (inactive) | > 100 µM (inactive) | > 100 µM (inactive) | > 100 µM (inactive)
COc1cccc(/C=C2\SC(=S)N(/C=C3\C(=O)Oc4ccccc4C3=O)C2=O)c1O | 56.4 µM (inactive) | 46 µM (inactive) | 34.4 µM (inactive) | 18.8 µM (inactive) | 22.3 µM (inactive) | 81.1 µM (inactive) | 39.4 µM (inactive) | 41.9 µM (inactive) | 78.3 µM (inactive) | 33.3 µM (inactive) | 24.9 µM (inactive) | 20 µM (inactive) | 49.2 µM (inactive) | 45.2 µM (inactive) | > 100 µM (inactive) | 50.7 µM (inactive) | 76.6 µM (inactive) | 19.8 µM (inactive) | 82.4 µM (inactive) | 59.2 µM (inactive)
O=C(NNCC(F)(F)F)c1ccncc1 | > 100 µM (inactive) | > 100 µM (inactive) | > 100 µM (inactive) | > 100 µM (inactive) | > 100 µM (inactive) | > 100 µM (inactive) | > 100 µM (inactive) | > 100 µM (inactive) | > 100 µM (inactive) | > 100 µM (inactive) | > 100 µM (inactive) | > 100 µM (inactive) | > 100 µM (inactive) | > 100 µM (inactive) | > 100 µM (inactive) | > 100 µM (inactive) | > 100 µM (inactive) | > 100 µM (inactive) | > 100 µM (inactive) | > 100 µM (inactive)
Cc1c(/N=N/c2ccc([N+](=O)[O-])cc2)nc2scc(-c3ccccc3)n12 | > 100 µM (inactive) | 63.4 µM (inactive) | 22 µM (inactive) | 67.1 µM (inactive) | 58.7 µM (inactive) | > 73.3 µM (inactive) | > 100 µM (inactive) | > 100 µM (inactive) | > 88.5 µM (inactive) | 46.5 µM (inactive) | 82.6 µM (inactive) | > 78.7 µM (inactive) | > 100 µM (inactive) | 90.8 µM (inactive) | > 100 µM (inactive) | > 66.5 µM (inactive) | 52.7 µM (inactive) | 44.5 µM (inactive) | > 100 µM (inactive) | > 84.1 µM (inactive)
CC1OC(OC2C(OC(=O)[C@]34CCC(C)(C)C[C@H]3C3=CC[C@@H]5[C@@]6(C)CC[C@H](OC7OC(CO)C(O)C(O)C7OC7OC(CO)C(O)C(O)C7O)C(C)(C)[C@@H]6CC[C@@]5(C)[C@]3(C)CC4)OCC(O)C2O)C(O)C(O)C1OC1OCC(O)C(O)C1O (stereo not given in full) | 3.13 µM (inactive) | 11.9 µM (inactive) | 10.8 µM (inactive) | 12.9 µM (inactive) | 2.3 µM (inactive) | 5.01 µM (inactive) | 4.67 µM (inactive) | 14.5 µM (inactive) | 7.03 µM (inactive) | 3.67 µM (inactive) | 45.8 µM (inactive) | 9.12 µM (inactive) | 16.3 µM (inactive) | 9.35 µM (inactive) | 3.82 µM (inactive) | 15.3 µM (inactive) | 11.2 µM (inactive) | 16.7 µM (inactive) | 9.59 µM (inactive) | 16 µM (inactive)
